Experimental data as given in US12029748B2, “Synergistic composition for maintenance of healthy balance of microflora” (KIMBERLY-CLARK WORLDWIDE, INC., priority 2017, dated 2024).
Where a SMILES comes first, the peptide text is derived from it.

What was measured:
[1] = Solubility screening of the composition (visual precipitates or turbidity); assay type: physicochemical; conditions: for Solubility of the composition, 0.50%: nitrogen compound 0.50 wt/vol % with 1.0 wt/vol % α methyl-D glucoside in medium; for Solubility of the composition, 1.00%: nitrogen compound 1.00 wt/vol % with 1.0 wt/vol % α methyl-D glucoside in medium
Excerpt: Each composition in Table 1 went through initial screening measures of solubility and initial pH (“I pH”). […] When a specific concentration of a nitrogen containing compound was insoluble, the initial and final pH (“F pH”) of the combined composition was not measured and accordingly are each marked as “NM.” Additionally, initial pH of the composition was checked as a screening measure. The initial pH was marked as either Low (“L”), High (“H”), or Pass (“P”). A Low initial pH corresponds to an initial pH being less than 5.5, a High initial pH corresponds to an initial pH being greater than 6.5, and a Pass initial pH corresponds to the pH being at or between 5.5-6.5. […] As part of the Therapeutic Effect Protocol, a final pH was also measured after the compositions that were tested against the Lactobacillus and E. coli.
All of the ingredients in Table 2 were combined and the pH was adjusted to 6.5. […] To evaluate the effect of various nitrogen containing therapeutic agents on the growth of bacteria, the LAPT-g media, prepared as described above, was supplemented with various nitrogen containing compound therapeutic agents to a final test concentration between 0.1 and 1.0%. As initial screening measures, solubility and initial pH of each composition were checked. If a specific composition was insoluble (as detected by visual indication of precipitates or turbidity), then no further therapeutic efficacy testing was undertaken on that composition. Additionally, if the initial pH of the composition was below 5.5 (“Low”) or was above 6.5 (“High”), then no further therapeutic efficacy testing was undertaken on that composition.

L. crispatus and E. coli = test: Therapeutic Effect Protocol: L. crispatus / E. coli co-culture, ratio after 36 hours; assay type: cell-based, Lactobacillus crispatus; E. coli; conditions: for Therapeutic Efficacy Results (Lactobacillus/E. coli) 0.10%: nitrogen compound 0.10 wt/vol % with 1.0 wt/vol % α methyl-D glucoside (10:1); for Therapeutic Efficacy Results (Lactobacillus/E. coli) 0.10% / Therapeutic Efficacy Results (Lactobacillus/E. coli) 0.50% / Therapeutic Efficacy Results (Lactobacillus/E. coli) 1.00%: 36 hours anaerobic co-culture, 37° C.; for Therapeutic Efficacy Results (Lactobacillus/E. coli) 0.50%: nitrogen compound 0.50 wt/vol % with 1.0 wt/vol % α methyl-D glucoside (2:1); for Therapeutic effect when ratio α methyl-D glucoside : nitrogen compound is at least about 2:1, but not at 1:1 / Therapeutic effect when ratio α methyl-D glucoside : nitrogen compound is less than 2:1 (1:1) / Therapeutic effect at ratio 2:1 and 10:1, but not at 1:1 / Therapeutic effect (ratio of Lactobacillus to E. coli greater than 2) at each concentration tested: with α methyl-D glucoside; for Therapeutic effect when ratio α methyl-D glucoside : nitrogen compound is at least about 2:1, but not at 1:1: ratio at least about 2:1, not 1:1; for Therapeutic Efficacy Results (Lactobacillus/E. coli) 1.00%: nitrogen compound 1.00 wt/vol % with 1.0 wt/vol % α methyl-D glucoside (1:1); for Therapeutic effect when ratio α methyl-D glucoside : nitrogen compound is less than 2:1 (1:1): ratio 1:1; for Therapeutic effect at ratio 2:1 and 10:1, but not at 1:1: ratios 2:1 and 10:1, not 1:1; for Therapeutic effect (ratio of Lactobacillus to E. coli greater than 2) at each concentration tested: nitrogen compound 1 wt/vol %, 0.5 wt/vol % and 0.1 wt/vol %
How it was run: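 L. crispatus and E. coli were mixed 1,000:1 (10^5-10^6 and 100-1,000 CFU per 5 mL tube) in LAPT-g medium at pH 6.5, containing 1% α-methyl-D-glucoside plus nitrogen compound at 0.1-1% w/v, in duplicate. After 36 h anaerobic incubation at 37 °C, each species was counted by selective plating (MRS anaerobic, TSA aerobic), and the L. crispatus:E. coli ratio and final pH were recorded.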

[2] = Initial pH screening of the composition; assay type: physicochemical; conditions: for I pH (initial pH), 0.10%: nitrogen compound 0.10 wt/vol % with 1.0 wt/vol % α methyl-D glucoside in medium; for I pH (initial pH), 0.50%: nitrogen compound 0.50 wt/vol % with 1.0 wt/vol % α methyl-D glucoside in medium; for I pH (initial pH), 1.00%: nitrogen compound 1.00 wt/vol % with 1.0 wt/vol % α methyl-D glucoside in medium
How it was run: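 Compounds were added to LAPT-g medium (pH adjusted to 6.5) at a final 0.1-1.0%. Solubility was judged visually by precipitate or turbidity, and insoluble compositions got no pH measurement. Initial pH was scored Low (<5.5), High (>6.5) or Pass (5.5-6.5), and only soluble Pass compositions went on to efficacy testing.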

Solubility of the composition, 0.10% ([1]; nitrogen compound 0.10 wt/vol % with 1.0 wt/vol % α methyl-D glucoside in medium) | Solubility of the composition, 0.50% [1] | Solubility of the composition, 1.00% [1] | SMILES | Therapeutic Efficacy Results (Lactobacillus/E. coli) 0.10% (L. crispatus and E. coli) | Therapeutic Efficacy Results (Lactobacillus/E. coli) 0.50% (L. crispatus and E. coli) | Therapeutic effect when ratio α methyl-D glucoside : nitrogen compound is at least about 2:1, but not at 1:1 (L. crispatus and E. coli) | I pH (initial pH), 0.10% [2] | I pH (initial pH), 0.50% [2] | Therapeutic Efficacy Results (Lactobacillus/E. coli) 1.00% (L. crispatus and E. coli) | Therapeutic effect when ratio α methyl-D glucoside : nitrogen compound is less than 2:1 (1:1) (L. crispatus and E. coli) | I pH (initial pH), 1.00% [2] | Therapeutic effect at ratio 2:1 and 10:1, but not at 1:1 (L. crispatus and E. coli) | Therapeutic effect (ratio of Lactobacillus to E. coli greater than 2) at each concentration tested (L. crispatus and E. coli)
Insol. | Insol. | Insol. | Nc1ncnc2nc[nH]c12 [Adenine] | – | – | – | – | – | – | – | – | – | –
– | – | Insol. | Nc1ncnc2c1ncn2[C@@H]1O[C@H](CO)[C@@H](O)[C@H]1O [Adenosine] | <100 | 0.97 | provided a therapeutic effect | P (a Pass initial pH corresponds to the pH being at or between 5.5-6.5) | P (a Pass initial pH corresponds to the pH being at or between 5.5-6.5) | – | – | – | – | –
– | – | Insol. | NC(=O)NC1NC(=O)NC1=O (stereo not drawn) [Allantoin] | 0.9 | 1.37 | – | P (a Pass initial pH corresponds to the pH being at or between 5.5-6.5) | P (a Pass initial pH corresponds to the pH being at or between 5.5-6.5) | – | – | – | – | –
– | – | Insol. | NC(=O)C[C@H](N)C(=O)O [L-Asparagine] | 1.12 | 1.72 | – | P (a Pass initial pH corresponds to the pH being at or between 5.5-6.5) | P (a Pass initial pH corresponds to the pH being at or between 5.5-6.5) | – | – | – | – | –
– | Insol. | Insol. | N[C@@H](Cc1c[nH]cn1)C(=O)O [L-Histidine] | 1.11 | – | – | P (a Pass initial pH corresponds to the pH being at or between 5.5-6.5) | – | – | – | – | – | –
– | – | – | Cl.NCCC[C@H](N)C(=O)O [L-Ornthine] | 1.31 | 1.24 | – | P (a Pass initial pH corresponds to the pH being at or between 5.5-6.5) | P (a Pass initial pH corresponds to the pH being at or between 5.5-6.5) | 3.97 | provided a therapeutic effect | P (a Pass initial pH corresponds to the pH being at or between 5.5-6.5) | – | –
– | – | – | N[C@@H](CO)C(=O)O [L-Serine] | 393 | >299 | provided a therapeutic effect | P (a Pass initial pH corresponds to the pH being at or between 5.5-6.5) | P (a Pass initial pH corresponds to the pH being at or between 5.5-6.5) | 0.45 | – | P (a Pass initial pH corresponds to the pH being at or between 5.5-6.5) | provided a therapeutic effect | –
– | – | – | C[C@@H](O)[C@H](N)C(=O)O [L-Threonine] | 0.74 | 1.13 | – | P (a Pass initial pH corresponds to the pH being at or between 5.5-6.5) | P (a Pass initial pH corresponds to the pH being at or between 5.5-6.5) | 0.36 | – | P (a Pass initial pH corresponds to the pH being at or between 5.5-6.5) | – | –
– | – | – | N[C@@H](Cc1ccc(O)cc1)C(=O)O [L-Tyrosine] | 2.72 | – | – | P (a Pass initial pH corresponds to the pH being at or between 5.5-6.5) | – | – | – | – | – | –
– | – | – | CC(C)[C@H](N)C(=O)O [L-Valine] | 1.34 | 0.38 | – | P (a Pass initial pH corresponds to the pH being at or between 5.5-6.5) | P (a Pass initial pH corresponds to the pH being at or between 5.5-6.5) | 1.01 | – | P (a Pass initial pH corresponds to the pH being at or between 5.5-6.5) | – | –
– | – | – | CSCC[C@H](N)C(=O)N[C@@H](C)C(=O)O [Met-Ala] (H-Met-Ala-OH) | 7.33 | – | provided a therapeutic effect | P (a Pass initial pH corresponds to the pH being at or between 5.5-6.5) | L (A Low initial pH corresponds to an initial pH being less than 5.5) | – | – | L (A Low initial pH corresponds to an initial pH being less than 5.5) | – | –
– | – | – | CNCCc1ccccc1.Cl [Methyl(2-phenylethyl)amine Hydrochloride] | 10 | <1.00 | provided a therapeutic effect | P (a Pass initial pH corresponds to the pH being at or between 5.5-6.5) | P (a Pass initial pH corresponds to the pH being at or between 5.5-6.5) | 3 | provided a therapeutic effect | P (a Pass initial pH corresponds to the pH being at or between 5.5-6.5) | – | –
– | – | – | CC(=O)N[C@H]1C(O)O[C@H](CO)[C@H](O)[C@@H]1O (stereo partly drawn) [N-Acetyl-D-Galactosamine] | 130 | >100 | provided a therapeutic effect | P (a Pass initial pH corresponds to the pH being at or between 5.5-6.5) | P (a Pass initial pH corresponds to the pH being at or between 5.5-6.5) | 0.65 | – | P (a Pass initial pH corresponds to the pH being at or between 5.5-6.5) | provided a therapeutic effect | –
– | – | – | CC(=O)N[C@H]1C(O)O[C@H](CO)[C@@H](O)[C@@H]1O (stereo partly drawn) [N-Acetyl-D-Glucosamine] | 8.33 | 211 | – | P (a Pass initial pH corresponds to the pH being at or between 5.5-6.5) | P (a Pass initial pH corresponds to the pH being at or between 5.5-6.5) | 7.00E+06 | provided a therapeutic effect | P (a Pass initial pH corresponds to the pH being at or between 5.5-6.5) | – | provided a therapeutic effect
– | – | – | CC(=O)N[C@@H]1C(O)O[C@H](CO)[C@@H](O)[C@@H]1O (stereo partly drawn) [N-Acetyl-D-Mannosamine] | 0.854 | 100 | provided a therapeutic effect | P (a Pass initial pH corresponds to the pH being at or between 5.5-6.5) | P (a Pass initial pH corresponds to the pH being at or between 5.5-6.5) | 0.02 | – | P (a Pass initial pH corresponds to the pH being at or between 5.5-6.5) | – | –
– | – | – | c1cncnc1 [Pyrimidine] | 245 | >4760 | – | P (a Pass initial pH corresponds to the pH being at or between 5.5-6.5) | P (a Pass initial pH corresponds to the pH being at or between 5.5-6.5) | 4.05 | provided a therapeutic effect | P (a Pass initial pH corresponds to the pH being at or between 5.5-6.5) | – | provided a therapeutic effect
